From patent publication US9580487B2, “Method of treating stomach or bowel-related disorders by administering glucagon-like-peptide-2 (GLP-2) analogues” (Zealand Pharma A/S, priority 2005, dated 2017)
Entries after “also recorded” stand apart in the source; their conditions may differ. No end group written: not given here.

What was measured:
TNF-α = test: Small intestinal tissue content of TNF-α (ELISA) in rats with indomethacin-induced inflammation; assay type: in vivo; conditions: for Tissue levels of TNF-α, proximal segment: indomethacin alone 97±14, control 34±7
Procedure: Male Sprague Dawley rats were treated with vehicle (saline; group 1) or indomethacin (7 mg/kg s.c., once daily for two days; groups 2-7). […] On day 3, rats were sacrificed and upon necropsy, the small intestine was divided into three segments of equal length corresponding to 1) duodenum and proximal jejunum, 2) mid and distal jejunum and 3) ileum. Samples were immediately snap-frozen in liquid N2 and stored at −80° C. until analysis. Homogenization and extraction of cellular protein from small intestinal segments was performed according to the following procedure: Tissue segments were weighed and added a volume of 1.5 ml per gram tissue ice-cold (4° C.) extraction buffer (10 mM Tris-HCl (Sigma) and 1 mM EDTA (J. T. Baker), (pH 7.6) with 0.05% sodium azide (Fluka), 1% Tween-80 (Fluka), 2 mM phenylmethylsulfonyl fluoride (PMSF, Fluka) and 1 μg/ml of each of the protease inhibitors aprotinin, leupeptin and pepstatin A (Roche Diagnostics)). The tissue was cut into small bits with a pair of scissors and homogenized three times for 20 seconds (IKA UltraTurrax T25 homogenizer, Janke & Kunkel) at 9500 rpm with intermittent cooling on ice for 30 seconds. The homogenate was centrifuged at 20.000×g for 30 minutes at 4° C., the supernatant was collected and stored at −20° C. until analysis for TNF-α small intestinal protein extractions were analyzed for TNF-α using a commercially available ELISA kit according to the manufacturer's instructions (Rat Tumor Necrosis Factor-α UltraSensitive ELISA kit, Biosource International Inc.). The assay has a detection limit of 0.7 pg/ml. Protein extractions were analyzed for total protein content using a commercially available assay (DC protein assay, Bio-Rad Laboratories Ltd.). Small intestinal tissue levels of TNF-α were expressed relative to total protein. […] Values are means±SEM. * P<0.05 vs. indomethacin (group 2).
At sacrifice, however the small intestine was separated into three segments of equal length (proximal, mid and distal). TNF-α concentrations were measured in each of the individual segments using a commercially available ELISA kit.

[1] = tested on: Sprague-Dawley rats treated with 5-Fluorouracil (5-FU); test: 5-FU-induced small intestinal atrophy and diarrhea in SD rats; assay type: in vivo
Procedure: FIG. 10 is a set of graphs showing effects of compound 1846 (SEQ ID NO:34) (16, 80 and 400 nmol/kg/d; s.c., n=6/dose group) in male Spague-Dawley rats treated with the cytostatic drug 5-Fluorouracil (5-FU). Compound 1846 (SEQ ID NO:34) was administered for 3 days prior to and for 4 days together with 5-FU (75 mg/kg, i.p. daily). Results were compared with responses in control animals treated with vehicle (saline) or 5-FU alone. Saline and 5-FU controls are also shown. […] Values are means±SEM. * P<0.05, relative to 5-FU alone.
FIG. 11 is a set of graphs showing the therapeutic effect of compound 1846 (SEQ ID NO:34) on diarrhea induced by treatment with the cytostatic drug 5-fluorouracil (5-FU). Rats were treated with 5-FU for 4 days with 75 mg/kg once daily (days 1-4); (n=40 rats). Half of the animals received additional treatment with compound 1846 (SEQ ID NO:34) (400 nmol/kg s.c. once daily) during the last 3 days prior to (days −3 to −1) and during 4 days of 5-FU treatment (days 0 to 3). Rats were observed twice daily (morning and evening) to determine whether the animal had diarrhea and the severity of the diarrhea was scored according to this scale: (0) no diarrhea; (1) mild—fecal staining around the anus; (2) moderate—fecal staining on the hind limbs and tail; and (3) severe—fecal staining on the front limbs and abdomen. On day 5, about 70% of Sprague Dawley rats that received 5-FU alone had developed diarrhea (FIG. 11A) while only 30% of the rats that were co-treated with compound 1846 (SEQ ID NO:34) developed diarrhea (FIG. 11B).
The effect of the clinical candidate, 1846 (SEQ ID NO:34), on 5-FU-induced small intestinal atrophy and diarrhea was investigated in SD rats. We have previously shown that i.p. administration of 75 mg/kg 5-FU once daily for four days induces significant small intestinal atrophy and diarrhea in SD rats. 1846 (SEQ ID NO:34) (16, 80 and 400 nmol/kg/d; […]) was administered twice daily for three days prior to 5-FU and for four days together with 5-FU administration. 5-FU controls and PBS controls were included in the study. […]

Substance | Tissue levels of TNF-α, proximal segment (TNF-α; 8 nmol/kg) [pg/mg protein] | Tissue levels of TNF-α, proximal segment (TNF-α; 40 nmol/kg) [pg/mg protein] | Tissue levels of TNF-α, proximal segment (TNF-α; 200 nmol/kg) [pg/mg protein] | Small intestinal tissue levels of TNF-α (in words) (TNF-α; 8, 40 or 200 nmol/kg, indomethacin-treated rats) | Tissue levels of TNF-α, mid segment (in words) (TNF-α; 40 or 200 nmol/kg, indomethacin alone 108±9 pg/mg protein) | TNF-α levels, distal segment (in words) (TNF-α; indomethacin alone 75±5 pg/mg protein) | TNF-α: efficacy compared with prednisolone (TNF-α; vs prednisolone 10 mg/kg) | Rats that developed diarrhea on day 5 ([1]; 400 nmol/kg s.c. with 5-FU 75 mg/kg, 5-FU alone about 70%) [%] | 5-FU-induced small intestinal atrophy (SI-BW, SI length) in rats ([1]; 16, 80 and 400 nmol/kg/d s.c., 3 days prior to and 4 days with 5-FU 75 mg/kg i.p. daily) | Incidence and severity of diarrhea ([1]; highest dose (400 nmol/kg), rats administered 5-FU)
[Gly2, Glu3, Thr5, Ser8, Leu10, Ala11,16,24,28]hGLP-2(1-33)-(Lys)6-NH2 (HGEGTFSSELATILDALAARDFIAWLIATKITDKKKKKK-NH2) [Compound 1848] | 45±14 | 44±9 | 45±7 | significantly decreased small intestinal tissue levels of the proinflammatory cytokine TNF-α | significantly reduced tissue levels of TNF-α | inhibitory effect on TNF-α levels in the distal segment but the effect was less pronounced compared to the other segments | more efficacious than prednisolone in the proximal and mid segments |  |  | 
[Gly2, Glu3, Ser8,11, Leu10, Ala16,24,28]hGLP-2(1-33)-(Lys)6-NH2 (HGEGSFSSELSTILDALAARDFIAWLIATKITDKKKKKK-NH2) [Compound 1846] |  |  |  |  |  |  |  | 30 | prevented 5-FU-induced small intestine atrophy; also recorded: dose-dependently prevented 5-FU induced small intestinal atrophy and maintained SI-BW and SI length at levels similar to the controls | decreased the incidence and severity of diarrhea
